ChEMBL document CHEMBL5370572, “Coscinoderines A-J: Trisubstituted Pyridinium-Containing Norterpenoids Isolated from Coscinoderma bakusi, a Tropical Marine Sponge” (J Nat Prod, 2023)
The source made the active and inactive calls. The calls are words filed in the database; no cut-off is given here.

What was measured:
HEK293 = experiment: Cytotoxicity against HEK293 cells assessed as reduction in cell proliferation at 1.25 to 80 uM measured after 48 hrs by MTS assay; type: toxicity, cell-based; conditions: human, hek293, 48 h, dose 1.25-80 µM
Micrococcus luteus [1] = experiment: Antibacterial activity against Micrococcus luteus KCTC 1915 assessed as inhibition of bacterial growth at 75 uM; type: functional, organism-based
Micrococcus luteus [2] = experiment: Antibacterial activity against Micrococcus luteus KCTC 1915 assessed as inhibition of bacterial growth at 72.6 uM; type: functional, organism-based
Staphylococcus aureus = experiment: Antibacterial activity against Staphylococcus aureus ATCC 25923 assessed as inhibition of bacterial growth at 45.4 uM; type: functional, organism-based

SMILES	Activity (HEK293)	inhibition (Micrococcus luteus [1])	inhibition (Micrococcus luteus [2])	inhibition (Staphylococcus aureus)
CC1=C(CC/C(C)=C/CCCc2ccc(CC(=O)O)c[n+]2CCS(=O)(=O)O)C(C)(C)CCC1	Non-Toxic			
C=C(C)[C@@]1(CC/C(C)=C/CCCc2ccc(CC(=O)O)c[n+]2CC(C)C)CCC[C@H]1C	Non-Toxic	Active		
CC(C)=CCC/C(C)=C/CC/C(C)=C/CCCc1ccc(CC(=O)O)c[n+]1CC(=O)O	Non-Toxic			
C=C(C)[C@@]1(CC/C(C)=C/CCCc2ccc(CC(=O)O)c[n+]2C[C@@H](C)CC)CCC[C@H]1C	Non-Toxic		Active	Active
